molecular target: T1, androgen receptor (AR-LBD) (Rattus norvegicus, UniProt P15207); experiment: Evaluation of androgen receptor affinity (PolarScreen Androgen Receptor Competitor Assay Kit, Red; fluorescence polarization); details: 22° C. for 5 hours, relative to binding rate of 1 μM DHT, read-out: AR affinity (pEC50) (converted)
T1 construct: 5 μL of 2×AR-LBD/Fluoromone AL Red Complex contained in the kit; purchased Invitrogen
T1 sequence (P15207 651-882 limits assumed): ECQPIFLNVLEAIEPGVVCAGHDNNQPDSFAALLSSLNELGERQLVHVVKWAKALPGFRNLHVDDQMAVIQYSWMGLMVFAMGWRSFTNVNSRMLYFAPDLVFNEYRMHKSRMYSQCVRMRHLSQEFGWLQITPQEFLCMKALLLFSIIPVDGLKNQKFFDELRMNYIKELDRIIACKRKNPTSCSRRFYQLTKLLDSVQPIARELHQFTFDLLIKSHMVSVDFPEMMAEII
Protocol: Evaluation of an Androgen Receptor Affinity
To examine the interaction of a compound with an androgen receptor, evaluation was carried out in accordance with the following procedure using PolarScreen™ Androgen Receptor Competitor Assay Kit, Red (Invitrogen). To 2 wells each of a 384 well black plate was added 5 μL of the compound solution. To each well was added 5 μL of 2×AR-LBD/Fluoromone AL Red Complex contained in the kit and the samples were reacted at 22° C. for 5 hours. After 5 hours of the reaction, fluorescence polarization was measured and the affinity was evaluated. The affinity of the compound was determined by comparing to the binding rate of 1 μM of dihydrotestosterone (DHT), and quantified the logarithm value (pEC50) of reciprocal value of the effective concentration of the compound which is equal to 50% of the binding rate by applying a 4 parameter goodness-of-fit calculation.

| Compound | EC50 [nM] |
| --- | --- |
| Cc1sc(N(CC(C)(C)C)c2ccc(C#N)cc2)nc1C(=O)NS(C)(=O)=O [Compound 74, 2-[4-cyano-N-(2,2-dimethylpropyl)anilino]-5-methyl-N-methylsulfonyl-thiazole-4-carboxamide] | > 2000 |
| CCC(c1ccccc1)N(c1ccc(C#N)cc1)c1nc(C(=O)NS(C)(=O)=O)c(C)s1 (stereo not drawn) [Compound 84, 2-[4-cyano-N-(1-phenylpropyl)anilino]-5-methyl-N-methylsulfonyl-thiazole-4-carboxamide] | > 2000 |
| Cc1sc(N(CCc2ccccn2)c2ccc(C#N)cc2)nc1C(=O)NS(C)(=O)=O [Compound 130, 2-[4-cyano-N-[2-(2-pyridyl)ethyl]anilino]-5-methyl-N-methylsulfonyl-thiazole-4-carboxamide] | > 2000 |
| Cc1sc(N(CCc2cccnc2)c2ccc(C#N)cc2)nc1C(=O)NS(C)(=O)=O [Compound 134, 2-[4-cyano-N-[2-(3-pyridyl)ethyl]anilino]-5-methyl-N-methylsulfonyl-thiazole-4-carboxamide] | > 2000 |
| Cc1nc(CCN(c2ccc(C#N)cc2)c2nc(C(=O)NS(C)(=O)=O)c(C)s2)cs1 [Compound 135, 2-[4-cyano-N-[2-(2-methylthiazol-4-yl)ethyl]anilino]-5-methyl-N-methylsulfonyl-thiazole-4-carboxamide] | > 2000 |
| Cc1sc(N(CCN2CCCC2=O)c2ccc(C#N)cc2)nc1C(=O)NS(C)(=O)=O [Compound 137, 2-[4-cyano-N-[2-(2-oxopyrrolidin-1-yl)ethyl]anilino]-5-methyl-N-methylsulfonyl-thiazole-4-carboxamide] | > 2000 |
| Cc1sc(N(Cc2ccccc2)c2ccc(C#N)cc2Br)nc1C(=O)NS(C)(=O)=O [Compound 142, 2-(N-benzyl-2-bromo-4-cyano-anilino)-5-methyl-N-methylsulfonyl-thiazole-4-carboxamide] | 631 |
| Cc1sc(N(CCc2c[nH]c3ccccc23)Cc2ccccc2)nc1C(=O)NS(C)(=O)=O [Compound 320, 2-[benzyl-[2-(1H-indol-3-yl)ethyl]amino]-5-methyl-N-methylsulfonyl-thiazole-4-carboxamide] | 631 |
| Cc1sc(N(CCc2ccc(C(=O)OC(C)(C)C)cc2)Cc2ccccc2)nc1C(=O)NS(C)(=O)=O [Compound 327, tert-butyl 4-[2-[benzyl-[5-methyl-4-(methylsulfonylcarbamoyl)thiazol-2-yl]amino]ethyl]benzoate] | > 2000 |
| Cc1sc(N(CCc2cccc(S(C)(=O)=O)c2)Cc2ccccc2)nc1C(=O)NS(C)(=O)=O [Compound 331, 2-[benzyl-[2-(3-methylsulfonylphenyl)ethyl]amino]-5-methyl-N-methylsulfonyl-thiazole-4-carboxamide] | > 2000 |
| Cc1sc(N(CCc2cccc(OC(F)(F)F)c2)Cc2ccccc2)nc1C(=O)NS(C)(=O)=O [Compound 332, 2-[benzyl-[2-[3-(trifluoromethoxy)phenyl]ethyl]amino]-5-methyl-N-methylsulfonyl-thiazole-4-carboxamide] | 398 |
| Cc1sc(N(CCc2ccccn2)Cc2ccccc2)nc1C(=O)NS(C)(=O)=O [Compound 334, 2-[benzyl-[2-(2-pyridyl)ethyl]amino]-5-methyl-N-methylsulfonyl-thiazole-4-carboxamide] | > 2000 |
| Cc1sc(N(Cc2ccccc2)c2ccc3[nH]ccc3c2)nc1C(=O)NS(C)(=O)=O [Compound 336, 2-[benzyl(1H-indol-5-yl)amino]-5-methyl-N-methylsulfonyl-thiazole-4-carboxamide] | > 2000 |
| Cc1sc(N(CC2CCCCO2)c2ccc(C#N)cc2)nc1C(=O)NS(C)(=O)=O (stereo not drawn) [Compound 345, 2-[4-cyano-N-(tetrahydropyran-2-ylmethyl)anilino]-5-methyl-N-methylsulfonyl-thiazole-4-carboxamide] | > 2000 |

Now from value to molecule:

| EC50 [nM] | Compound |
| --- | --- |
| > 2000 | Cc1sc(N(CC(C)C)c2ccc(C#N)cc2)nc1C(=O)NS(C)(=O)=O [Compound 73, 2-(4-cyano-N-isobutyl-anilino)-5-methyl-N-methylsulfonyl-thiazole-4-carboxamide] |
| 158 | Cc1sc(N(Cc2cccc3nonc23)c2ccc(C#N)cc2)nc1C(=O)NS(C)(=O)=O [Compound 92, 2-[N-(2,1,3-benzoxadiazol-4-ylmethyl)-4-cyano-anilino]-5-methyl-N-methylsulfonyl-thiazole-4-carboxamide] |
| 631 | Cc1sc(N(Cc2ccccc2C(F)F)c2ccc(C#N)cc2)nc1C(=O)NS(C)(=O)=O [Compound 93, 2-[4-cyano-N-[[2-(difluoromethyl)phenyl]methyl]anilino]-5-methyl-N-methylsulfonyl-thiazole-4-carboxamide] |
| 251 | CC(=O)c1cccc(CN(c2ccc(C#N)cc2)c2nc(C(=O)NS(C)(=O)=O)c(C)s2)c1 [Compound 95, 2-[N-[(3-acetylphenyl)methyl]-4-cyano-anilino]-5-methyl-N-methylsulfonyl-thiazole-4-carboxamide] |
| 39.8 | Cc1cc(F)cc(CN(c2ccc(C#N)cc2)c2nc(C(=O)NS(C)(=O)=O)c(C)s2)c1 [Compound 98, 2-[4-cyano-N-[(3-fluoro-5-methyl-phenyl)methyl]anilino]-5-methyl-N-methylsulfonyl-thiazole-4-carboxamide] |
| 631 | Cc1sc(N(Cc2ccccc2OC(F)(F)F)c2ccc(C#N)cc2)nc1C(=O)NS(C)(=O)=O [Compound 101, 2-[4-cyano-N-[[2-(trifluoromethoxy)phenyl]methyl]anilino]-5-methyl-N-methylsulfonyl-thiazole-4-carboxamide] |
| > 2000 | Cc1sc(N(CC2CCCOC2)c2ccc(C#N)cc2)nc1C(=O)NS(C)(=O)=O (stereo not drawn) [Compound 120, 2-[4-cyano-N-(tetrahydropyran-3-ylmethyl)anilino]-5-methyl-N-methylsulfonyl-thiazole-4-carboxamide] |
| > 2000 | Cc1ncsc1CCN(c1ccc(C#N)cc1)c1nc(C(=O)NS(C)(=O)=O)c(C)s1 [Compound 136, 2-[4-cyano-N-[2-(4-methylthiazol-5-yl)ethyl]anilino]-5-methyl-N-methylsulfonyl-thiazole-4-carboxamide] |
| > 2000 | Cc1noc(C)c1CN(CCc1ccc(Cl)cc1)c1nc(C(=O)NS(C)(=O)=O)c(C)s1 [Compound 151, 2-[2-(4-chlorophenyl)ethyl-[(3,5-dimethylisoxazol-4-yl)methyl]amino]-5-methyl-N-methylsulfonyl-thiazole-4-carboxamide] |
| > 2000 | Cc1sc(N(CCc2ccc(C(=O)O)cc2)Cc2ccccc2)nc1C(=O)NS(C)(=O)=O [Compound 328, 4-[2-[benzyl-[5-methyl-4-(methylsulfonylcarbamoyl)thiazol-2-yl]amino]ethyl]benzoic acid] |
| > 2000 | Cc1sc(N(Cc2ccccc2)c2cccc3c2ccn3C)nc1C(=O)NS(C)(=O)=O [Compound 337, 2-[benzyl-(1-methylindol-4-yl)amino]-5-methyl-N-methylsulfonyl-thiazole-4-carboxamide] |
| > 2000 | Cc1sc(N(Cc2ccccc2)c2ccc3c(ccn3C)c2)nc1C(=O)NS(C)(=O)=O [Compound 338, 2-[benzyl-(1-methylindole-5-yl]amino]-5-methyl-N-methylsulfonyl-thiazole-4-carboxamide] |
| > 2000 | Cc1sc(N(CC2CCOCC2)c2ccc(C#N)cc2)nc1C(=O)NS(C)(=O)=O [Compound 346, 2-[4-cyano-N-(tetrahydropyran-4-ylmethyl)anilino]-5-methyl-N-methylsulfonyl-thiazole-4-carboxamide] |
